Assays:
[1] = system: patients with relapsed/refractory multiple myeloma (RR–MM); assay: Phase 1 dose-escalation trial of oral NMP: safety, adverse events (CTCAE 4.03), DLT, MTD; format: in vivo
Method: This was a phase 1, open-label dose-escalation trial of orally administered NMP in patients with relapsed/refractory multiple myeloma (RR–MM). Eligible patients were ≥ 18 years old with Eastern Cooperative Oncology Group (ECOG) < 2 and histologically confirmed plasma cell myeloma defined by WHO 2008 criteria with measurable disease (defined by serum M-protein > 5 g/L, urine M-protein > 200 mg/24 h, involved serum free light chain > 100 mg/L or measurable soft tissue plasmacytoma). Patients were required to have relapsed following prior treatment and/or be refractory to or intolerant of both bortezomib and lenalidomide and must have undergone autologous stem cell transplant (unless deemed ineligible at investigator discretion). Exclusion criteria included: central nervous system involvement, active second malignancy within two years, uncontrolled medical conditions contraindicating an investigational agent due to inadequate organ function and concomitant exposure to anti-myeloma therapies.
The primary study endpoint was to determine the MTD of orally administered NMP in patients with RR–MM. Secondary endpoints included safety, PK analyses, IMWG defined response rate and exploratory immunological biomarkers. Adverse events were defined according to Common Terminology Criteria for Adverse Events (CTCAE version 4.03). Haematological DLTs were defined as grade 4 neutropenia unresponsive to G-CSF, grade 4 thrombocytopenia and febrile neutropenia. Non-haematological DLTs were grade 3 or higher and considered probably related to study drug and not attributable to disease progression and those resulting treatment delays greater than two weeks due to drug-related toxicity. Self-limited (< 24 h) gastrointestinal side effects (e.g. nausea, diarrhoea) responding to supportive measures were not classified as DLTs.
Pharmaceutical grade NMP stock solution (Ashland, Columbus, OH, USA) was diluted in ORA SWEET® SF (Medical Flavouring Systems, Vic, Australia) oral syrup vehicle and sterile water to a final concentration of 50 mg/mL and dispensed weekly in amber glass bottles for storage a room temperature. NMP was administered as a single morning dose on an empty stomach at least 30 min prior to food. Patients were dosed according to an ‘accelerated’ escalation schedule (one patient per dose level) in the absence of significant toxicity until a DLT was experienced and then in a 3 × 3 ‘standard’ dose-escalation phase. Intra-patient dose escalation at 100 mg increments was also permitted whereby the MTD had not been determined and the patient tolerated two consecutive cycles without DLT or an objective disease response. Treatment was administered daily for 28-day cycles until withdrawal from protocol due to toxicity or disease progression.

[2] = system: BET-bromodomains; set-up: method as in PMID 26047594, PMID 24813887; conditions: suppression of LPS-induced TNFα-secretion, downregulation of cMYC expression; cited from earlier work
[3] = set-up: method as in PMID 9029058; conditions: human, after a single 100 mg oral dose of NMP; cited from earlier work

CN1CCCC1=O [NMP, N-methyl-2-pyrrolidone]
7: Nausea: Total (patients) ([1]; human, in vivo)
1 to 10 mM: concentration at which NMP phenocopies effects of BET-inhibitors [2]
6: Nausea: worst grade 2 (patients) ([1]; human, in vivo) | Overall adverse events: worst grade 3 (patients) ([1]; human, in vivo)
not defined: maximum tolerated dose (MTD) ([1]; human, in vivo, po)
0.8%: amount found in urine [3]
no grade 5 AEs: grade 5 AEs ([1]; 13 patients)
100%: Overall adverse events: Total ([1]; human, in vivo)
54%: Grade 3–4 adverse events, patients ([1]; human, in vivo) | Nausea: Total ([1]; human, in vivo)
3: Anaemia: Total (patients) ([1]; human, in vivo) | Anorexia: Total (patients) ([1]; human, in vivo) | Anorexia: worst grade 2 (patients) ([1]; human, in vivo) | Diarrhoea: Total (patients) ([1]; human, in vivo) | Dizziness: Total (patients) ([1]; human, in vivo) | Fatigue: Total (patients) ([1]; human, in vivo) | Fatigue: worst grade 1 (patients) ([1]; human, in vivo) | Musculoskeletal pain: worst grade 2 (patients) ([1]; human, in vivo) | Neutrophil count decreased: Total (patients) ([1]; human, in vivo) | Peripheral sensory neuropathy: Total (patients) ([1]; human, in vivo) | Peripheral sensory neuropathy: worst grade 2 (patients) ([1]; human, in vivo)
8%: overall DLT rate ([1]; human, in vivo)
5: Musculoskeletal pain: Total (patients) ([1]; human, in vivo) | Overall adverse events: worst grade 2 (patients) ([1]; human, in vivo)
diarrhoea: dose limiting toxicity (DLT) event ([1]; in vivo)
13: Overall adverse events: Total (patients) ([1]; human, in vivo)
15%: Constipation: Total ([1]; human, in vivo) | Dysgeusia: Total ([1]; human, in vivo) | Fever: Total ([1]; human, in vivo) | Pruritus: Total ([1]; human, in vivo) | Renal dysfunction: Total ([1]; human, in vivo) | Sore throat: Total ([1]; human, in vivo) | URTI: Total ([1]; human, in vivo)
1: Anaemia: worst grade 2 (patients) ([1]; human, in vivo) | Constipation: worst grade 1 (patients) ([1]; human, in vivo) | Constipation: worst grade 2 (patients) ([1]; human, in vivo) | Diarrhoea: worst grade 3 (patients) ([1]; human, in vivo) | Dizziness: worst grade 2 (patients) ([1]; human, in vivo) | Fever: worst grade 3 (patients) ([1]; human, in vivo) | Fever: worst grade 4 (patients) ([1]; human, in vivo) | Nausea: worst grade 1 (patients) ([1]; human, in vivo) | Neutrophil count decreased: worst grade 2 (patients) ([1]; human, in vivo) | Overall adverse events: worst grade 1 (patients) ([1]; human, in vivo) | Overall adverse events: worst grade 4 (patients) ([1]; human, in vivo)
2: Anaemia: worst grade 3 (patients) ([1]; human, in vivo) | Constipation: Total (patients) ([1]; human, in vivo) | Diarrhoea: worst grade 1 (patients) ([1]; human, in vivo) | Dizziness: worst grade 1 (patients) ([1]; human, in vivo) | Dysgeusia: Total (patients) ([1]; human, in vivo) | Dysgeusia: worst grade 1 (patients) ([1]; human, in vivo) | Fever: Total (patients) ([1]; human, in vivo) | Musculoskeletal pain: worst grade 1 (patients) ([1]; human, in vivo) | Neutrophil count decreased: worst grade 3 (patients) ([1]; human, in vivo) | Pruritus: Total (patients) ([1]; human, in vivo) | Pruritus: worst grade 1 (patients) ([1]; human, in vivo) | Renal dysfunction: Total (patients) ([1]; human, in vivo) | Renal dysfunction: worst grade 3 (patients) ([1]; human, in vivo) | Sore throat: Total (patients) ([1]; human, in vivo) | Sore throat: worst grade 1 (patients) ([1]; human, in vivo) | URTI: Total (patients) ([1]; human, in vivo) | URTI: worst grade 2 (patients) ([1]; human, in vivo)
0: Anaemia: worst grade 1 (patients) ([1]; human, in vivo) | Anaemia: worst grade 4 (patients) ([1]; human, in vivo) | Anorexia: worst grade 1 (patients) ([1]; human, in vivo) | Anorexia: worst grade 3 (patients) ([1]; human, in vivo) | Anorexia: worst grade 4 (patients) ([1]; human, in vivo) | Constipation: worst grade 3 (patients) ([1]; human, in vivo) | Constipation: worst grade 4 (patients) ([1]; human, in vivo) | Diarrhoea: worst grade 2 (patients) ([1]; human, in vivo) | Diarrhoea: worst grade 4 (patients) ([1]; human, in vivo) | Dizziness: worst grade 3 (patients) ([1]; human, in vivo) | Dizziness: worst grade 4 (patients) ([1]; human, in vivo) | Dysgeusia: worst grade 2 (patients) ([1]; human, in vivo) | Dysgeusia: worst grade 3 (patients) ([1]; human, in vivo) | Dysgeusia: worst grade 4 (patients) ([1]; human, in vivo) | Fatigue: worst grade 2 (patients) ([1]; human, in vivo) | Fatigue: worst grade 3 (patients) ([1]; human, in vivo) | Fatigue: worst grade 4 (patients) ([1]; human, in vivo) | Fever: worst grade 1 (patients) ([1]; human, in vivo) | Fever: worst grade 2 (patients) ([1]; human, in vivo) | Musculoskeletal pain: worst grade 3 (patients) ([1]; human, in vivo) | Musculoskeletal pain: worst grade 4 (patients) ([1]; human, in vivo) | Nausea: worst grade 3 (patients) ([1]; human, in vivo) | Nausea: worst grade 4 (patients) ([1]; human, in vivo) | Neutrophil count decreased: worst grade 1 (patients) ([1]; human, in vivo) | Neutrophil count decreased: worst grade 4 (patients) ([1]; human, in vivo) | Peripheral sensory neuropathy: worst grade 1 (patients) ([1]; human, in vivo) | Peripheral sensory neuropathy: worst grade 3 (patients) ([1]; human, in vivo) | Peripheral sensory neuropathy: worst grade 4 (patients) ([1]; human, in vivo) | Pruritus: worst grade 2 (patients) ([1]; human, in vivo) | Pruritus: worst grade 3 (patients) ([1]; human, in vivo) | Pruritus: worst grade 4 (patients) ([1]; human, in vivo) | Renal dysfunction: worst grade 1 (patients) ([1]; human, in vivo) | Renal dysfunction: worst grade 2 (patients) ([1]; human, in vivo) | Renal dysfunction: worst grade 4 (patients) ([1]; human, in vivo) | Sore throat: worst grade 2 (patients) ([1]; human, in vivo) | Sore throat: worst grade 3 (patients) ([1]; human, in vivo) | Sore throat: worst grade 4 (patients) ([1]; human, in vivo) | URTI: worst grade 1 (patients) ([1]; human, in vivo) | URTI: worst grade 3 (patients) ([1]; human, in vivo) | URTI: worst grade 4 (patients) ([1]; human, in vivo)
23%: Anaemia: Total ([1]; human, in vivo) | Anorexia: Total ([1]; human, in vivo) | Diarrhoea: Total ([1]; human, in vivo) | Dizziness: Total ([1]; human, in vivo) | Fatigue: Total ([1]; human, in vivo) | Peripheral sensory neuropathy: Total ([1]; human, in vivo)
38%: Musculoskeletal pain: Total ([1]; human, in vivo)

Source: PMC9884426, “A phase 1 clinical trial of the repurposable acetyllysine mimetic, n-methyl-2-pyrrolidone (NMP), in relapsed or refractory multiple myeloma” (Clinical Epigenetics, 2023)
